Measured values published in ChEMBL document CHEMBL4507329, “Data for DCP probe BTZO-1” (2021).

Assays:
[1] = tested on: Tyrosine-protein kinase ABL1 (Homo sapiens), P00519 [H396P]; conditions: Compound concentration 1000.0 nM
[2] = tested on: ALK tyrosine kinase receptor (Homo sapiens), Q9UM73 [L1196M]; conditions: Compound concentration 1000.0 nM
[3] = biological target: Calcium/calmodulin-dependent protein kinase type IV (Homo sapiens) (UniProt Q16566); conditions: Compound concentration 1000.0 nM
[4] = biological target: Discoidin domain-containing receptor 2 (Homo sapiens) (UniProt Q16832); conditions: Compound concentration 1000.0 nM
[5] = biological target: Serine/threonine-protein kinase 17A (Homo sapiens) (UniProt Q9UEE5); conditions: Compound concentration 1000.0 nM
Chain of Serine/threonine-protein kinase 17A (Homo sapiens) (Q9UEE5 whole entry): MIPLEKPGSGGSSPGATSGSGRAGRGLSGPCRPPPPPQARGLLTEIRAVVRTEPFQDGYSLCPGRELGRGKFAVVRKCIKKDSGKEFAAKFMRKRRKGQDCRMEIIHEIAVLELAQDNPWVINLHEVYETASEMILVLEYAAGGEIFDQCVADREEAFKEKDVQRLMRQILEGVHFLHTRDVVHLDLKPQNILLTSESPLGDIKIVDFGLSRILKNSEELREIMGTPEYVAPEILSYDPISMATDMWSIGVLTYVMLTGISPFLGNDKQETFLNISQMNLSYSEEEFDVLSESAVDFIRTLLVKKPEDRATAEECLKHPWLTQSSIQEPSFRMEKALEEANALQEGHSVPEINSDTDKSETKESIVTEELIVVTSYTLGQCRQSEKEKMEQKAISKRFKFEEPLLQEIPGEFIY

[6] = biological target: Dual specificity tyrosine-phosphorylation-regulated kinase 2 (Homo sapiens) (UniProt Q92630); conditions: Compound concentration 1000.0 nM
[7] = tested on: Epidermal growth factor receptor (Homo sapiens), P00533 [G719S]; conditions: Compound concentration 1000.0 nM
[8] = tested on: Epidermal growth factor receptor (Homo sapiens), P00533 [UNDEFINED MUTATION]; conditions: Compound concentration 1000.0 nM
[9] = biological target: Ephrin type-B receptor 6 (Homo sapiens) (UniProt O15197); conditions: Compound concentration 1000.0 nM
[10] = tested on: Receptor-type tyrosine-protein kinase FLT3 (Homo sapiens), P36888 [D835V]; conditions: Compound concentration 1000.0 nM
[11] = tested on: Receptor-type tyrosine-protein kinase FLT3 (Homo sapiens), P36888 [D835Y]; conditions: Compound concentration 1000.0 nM
[12] = biological target: Beta-adrenergic receptor kinase 1 (Homo sapiens) (UniProt P25098); conditions: Compound concentration 1000.0 nM
[13] = biological target: Tyrosine-protein kinase HCK (Homo sapiens) (UniProt P08631); conditions: Compound concentration 1000.0 nM
[14] = biological target: Mitogen-activated protein kinase kinase kinase kinase 1 (Homo sapiens) (UniProt Q92918); conditions: Compound concentration 1000.0 nM
[15] = biological target: Interleukin-1 receptor-associated kinase 3 (Homo sapiens) (UniProt Q9Y616); conditions: Compound concentration 1000.0 nM
[16] = biological target: Tyrosine-protein kinase JAK1 (Homo sapiens) (UniProt P23458); conditions: Compound concentration 1000.0 nM
[17] = tested on: Mast/stem cell growth factor receptor Kit (Homo sapiens), P10721 [D816V]; conditions: Compound concentration 1000.0 nM
[18] = biological target: Leucine-rich repeat serine/threonine-protein kinase 2 (Homo sapiens) (UniProt Q5S007); conditions: Compound concentration 1000.0 nM
[19] = biological target: Tyrosine-protein kinase Lyn (Homo sapiens) (UniProt P07948); conditions: Compound concentration 1000.0 nM
Chain of Tyrosine-protein kinase Lyn (Homo sapiens) (P07948 2-512 limits assumed): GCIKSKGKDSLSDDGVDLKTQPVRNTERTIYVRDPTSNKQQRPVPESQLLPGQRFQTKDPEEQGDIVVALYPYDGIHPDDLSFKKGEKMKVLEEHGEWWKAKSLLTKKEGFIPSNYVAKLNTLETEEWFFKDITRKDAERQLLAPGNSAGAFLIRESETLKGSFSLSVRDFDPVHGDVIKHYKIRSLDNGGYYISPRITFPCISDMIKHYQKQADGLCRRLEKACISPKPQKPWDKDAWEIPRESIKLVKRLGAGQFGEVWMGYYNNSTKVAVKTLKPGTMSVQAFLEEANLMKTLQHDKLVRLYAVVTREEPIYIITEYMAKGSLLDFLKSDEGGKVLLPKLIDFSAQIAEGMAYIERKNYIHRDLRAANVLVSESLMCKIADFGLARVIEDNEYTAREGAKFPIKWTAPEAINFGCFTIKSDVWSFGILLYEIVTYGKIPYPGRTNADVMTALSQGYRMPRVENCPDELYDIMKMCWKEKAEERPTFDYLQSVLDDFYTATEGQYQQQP

[20] = biological target: Dual specificity mitogen-activated protein kinase kinase 1 (Homo sapiens) (UniProt Q02750); conditions: Compound concentration 1000.0 nM
[21] = biological target: Dual specificity mitogen-activated protein kinase kinase 6 (Homo sapiens) (UniProt P52564); conditions: Compound concentration 1000.0 nM
[22] = tested on: Hepatocyte growth factor receptor (Homo sapiens), P08581 [Y1235D]; conditions: Compound concentration 1000.0 nM
[23] = biological target: Mitogen-activated protein kinase kinase kinase 10 (Homo sapiens) (UniProt Q02779); conditions: Compound concentration 1000.0 nM
Chain of Mitogen-activated protein kinase kinase kinase 10 (Homo sapiens) (Q02779 whole entry, looked up): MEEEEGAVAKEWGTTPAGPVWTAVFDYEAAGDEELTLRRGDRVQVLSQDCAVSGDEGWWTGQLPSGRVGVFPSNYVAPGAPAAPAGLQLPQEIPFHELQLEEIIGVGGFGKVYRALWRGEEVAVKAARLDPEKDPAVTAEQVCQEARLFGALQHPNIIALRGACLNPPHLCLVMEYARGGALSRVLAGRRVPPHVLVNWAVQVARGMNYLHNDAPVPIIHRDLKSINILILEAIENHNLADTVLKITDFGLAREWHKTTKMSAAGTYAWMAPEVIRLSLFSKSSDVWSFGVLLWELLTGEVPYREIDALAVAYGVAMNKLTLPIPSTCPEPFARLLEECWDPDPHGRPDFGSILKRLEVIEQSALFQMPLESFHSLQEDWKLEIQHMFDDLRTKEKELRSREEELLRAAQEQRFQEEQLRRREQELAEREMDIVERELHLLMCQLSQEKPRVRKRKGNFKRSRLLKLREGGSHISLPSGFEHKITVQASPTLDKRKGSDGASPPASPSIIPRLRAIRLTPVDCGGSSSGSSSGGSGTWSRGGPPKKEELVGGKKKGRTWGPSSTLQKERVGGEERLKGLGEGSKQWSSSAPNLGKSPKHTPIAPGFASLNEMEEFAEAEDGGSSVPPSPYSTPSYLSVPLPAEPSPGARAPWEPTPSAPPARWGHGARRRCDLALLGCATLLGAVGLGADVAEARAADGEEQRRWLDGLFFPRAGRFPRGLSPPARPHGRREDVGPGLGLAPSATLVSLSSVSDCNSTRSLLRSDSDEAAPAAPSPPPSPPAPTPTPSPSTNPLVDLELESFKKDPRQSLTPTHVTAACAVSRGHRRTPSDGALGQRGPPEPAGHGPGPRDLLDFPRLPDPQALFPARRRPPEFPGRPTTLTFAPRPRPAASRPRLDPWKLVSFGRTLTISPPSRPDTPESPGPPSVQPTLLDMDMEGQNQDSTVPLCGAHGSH

[24] = biological target: Serine/threonine-protein kinase 38-like (Homo sapiens) (UniProt Q9Y2H1); conditions: Compound concentration 1000.0 nM
Chain of Serine/threonine-protein kinase 38-like (Homo sapiens) (Q9Y2H1 2-464 limits assumed): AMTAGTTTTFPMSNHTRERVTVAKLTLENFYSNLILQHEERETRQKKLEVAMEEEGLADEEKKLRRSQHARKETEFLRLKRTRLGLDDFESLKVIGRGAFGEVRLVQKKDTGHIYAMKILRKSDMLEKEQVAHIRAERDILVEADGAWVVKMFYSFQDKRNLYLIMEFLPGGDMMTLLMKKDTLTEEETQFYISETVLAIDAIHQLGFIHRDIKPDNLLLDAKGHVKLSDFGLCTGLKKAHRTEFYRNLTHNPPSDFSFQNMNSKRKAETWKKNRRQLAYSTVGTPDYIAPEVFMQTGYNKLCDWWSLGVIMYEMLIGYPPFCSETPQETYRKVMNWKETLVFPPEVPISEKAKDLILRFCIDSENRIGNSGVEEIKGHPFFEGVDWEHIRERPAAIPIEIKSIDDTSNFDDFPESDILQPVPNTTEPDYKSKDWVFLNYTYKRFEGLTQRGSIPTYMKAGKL

[25] = biological target: Serine/threonine-protein kinase Nek5 (Homo sapiens) (UniProt Q6P3R8); conditions: Compound concentration 1000.0 nM
[26] = biological target: Serine/threonine-protein kinase PAK 4 (Homo sapiens) (UniProt O96013); conditions: Compound concentration 1000.0 nM
Chain of Serine/threonine-protein kinase PAK 4 (Homo sapiens) (O96013 whole entry, looked up): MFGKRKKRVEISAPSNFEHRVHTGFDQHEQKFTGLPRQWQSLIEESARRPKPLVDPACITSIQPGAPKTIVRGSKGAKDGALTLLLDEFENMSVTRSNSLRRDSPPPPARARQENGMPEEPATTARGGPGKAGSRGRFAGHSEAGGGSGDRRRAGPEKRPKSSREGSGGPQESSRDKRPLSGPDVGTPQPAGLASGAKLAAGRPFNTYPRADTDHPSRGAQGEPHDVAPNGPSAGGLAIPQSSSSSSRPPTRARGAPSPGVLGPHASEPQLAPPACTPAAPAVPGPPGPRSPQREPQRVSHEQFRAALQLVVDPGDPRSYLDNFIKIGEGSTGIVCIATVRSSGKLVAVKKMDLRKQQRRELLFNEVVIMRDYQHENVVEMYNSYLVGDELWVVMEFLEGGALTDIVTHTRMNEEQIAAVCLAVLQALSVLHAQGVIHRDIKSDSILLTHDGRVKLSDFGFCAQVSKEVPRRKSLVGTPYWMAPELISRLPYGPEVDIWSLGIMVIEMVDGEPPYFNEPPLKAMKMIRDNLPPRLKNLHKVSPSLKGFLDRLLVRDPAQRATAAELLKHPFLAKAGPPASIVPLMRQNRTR

[27] = biological target: Serine/threonine-protein kinase PAK 6 (Homo sapiens) (UniProt Q9NQU5); conditions: Compound concentration 1000.0 nM
Chain of Serine/threonine-protein kinase PAK 6 (Homo sapiens) (Q9NQU5 whole entry, looked up, canonical isoform): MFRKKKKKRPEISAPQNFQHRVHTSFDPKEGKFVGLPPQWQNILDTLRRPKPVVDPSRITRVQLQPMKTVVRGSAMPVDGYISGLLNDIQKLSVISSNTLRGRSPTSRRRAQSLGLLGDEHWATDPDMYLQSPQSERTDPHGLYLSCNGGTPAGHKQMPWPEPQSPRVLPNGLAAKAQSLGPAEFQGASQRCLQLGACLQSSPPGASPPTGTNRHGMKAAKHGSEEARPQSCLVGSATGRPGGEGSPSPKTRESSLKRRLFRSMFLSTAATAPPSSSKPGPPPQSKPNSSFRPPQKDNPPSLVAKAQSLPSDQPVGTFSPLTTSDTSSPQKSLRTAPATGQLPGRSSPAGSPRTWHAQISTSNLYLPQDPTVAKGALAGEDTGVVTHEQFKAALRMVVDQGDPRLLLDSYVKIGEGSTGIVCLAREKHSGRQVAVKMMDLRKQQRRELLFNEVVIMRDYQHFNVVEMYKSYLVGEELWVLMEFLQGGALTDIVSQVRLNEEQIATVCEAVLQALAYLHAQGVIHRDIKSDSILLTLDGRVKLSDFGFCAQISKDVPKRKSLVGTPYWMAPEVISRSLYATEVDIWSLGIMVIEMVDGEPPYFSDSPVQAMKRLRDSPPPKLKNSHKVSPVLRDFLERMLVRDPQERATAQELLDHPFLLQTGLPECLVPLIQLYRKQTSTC

[28] = biological target: Phosphorylase b kinase regulatory subunit alpha, liver isoform (Homo sapiens) (UniProt P46019); conditions: Compound concentration 1000.0 nM
[29] = biological target: Phosphatidylinositol 4,5-bisphosphate 3-kinase catalytic subunit beta isoform (Homo sapiens) (UniProt P42338); conditions: Compound concentration 1000.0 nM
[30] = biological target: Phosphatidylinositol 5-phosphate 4-kinase type-2 beta (Homo sapiens) (UniProt P78356); conditions: Compound concentration 1000.0 nM
[31] = biological target: Phosphatidylinositol 5-phosphate 4-kinase type-2 gamma (Homo sapiens) (UniProt Q8TBX8); conditions: Compound concentration 1000.0 nM
[32] = biological target: Receptor-interacting serine/threonine-protein kinase 1 (Homo sapiens) (UniProt Q13546); conditions: Compound concentration 1000.0 nM
[33] = biological target: Ribosomal protein S6 kinase alpha-4 (Homo sapiens) (UniProt O75676); conditions: Compound concentration 1000.0 nM
[34] = biological target: Ribosomal protein S6 kinase alpha-3 (Homo sapiens) (UniProt P51812); conditions: Compound concentration 1000.0 nM
[35] = biological target: Serine/threonine-protein kinase SBK1 (Homo sapiens) (UniProt Q52WX2); conditions: Compound concentration 1000.0 nM
Chain of Serine/threonine-protein kinase SBK1 (Homo sapiens) (Q52WX2 whole entry): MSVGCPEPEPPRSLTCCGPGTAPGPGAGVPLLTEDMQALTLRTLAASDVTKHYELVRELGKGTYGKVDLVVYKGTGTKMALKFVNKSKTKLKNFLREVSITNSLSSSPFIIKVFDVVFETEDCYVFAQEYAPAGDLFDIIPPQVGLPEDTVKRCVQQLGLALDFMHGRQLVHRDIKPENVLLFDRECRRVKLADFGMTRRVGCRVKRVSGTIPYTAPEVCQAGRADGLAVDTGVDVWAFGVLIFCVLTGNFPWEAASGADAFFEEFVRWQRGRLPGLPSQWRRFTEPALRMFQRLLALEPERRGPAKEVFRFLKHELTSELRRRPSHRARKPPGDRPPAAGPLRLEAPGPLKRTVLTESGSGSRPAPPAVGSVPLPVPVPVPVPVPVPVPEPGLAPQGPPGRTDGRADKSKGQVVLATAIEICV

[36] = biological target: Serine/threonine-protein kinase Sgk3 (Homo sapiens) (UniProt Q96BR1); conditions: Compound concentration 1000.0 nM
Chain of Serine/threonine-protein kinase Sgk3 (Homo sapiens) (Q96BR1 whole entry): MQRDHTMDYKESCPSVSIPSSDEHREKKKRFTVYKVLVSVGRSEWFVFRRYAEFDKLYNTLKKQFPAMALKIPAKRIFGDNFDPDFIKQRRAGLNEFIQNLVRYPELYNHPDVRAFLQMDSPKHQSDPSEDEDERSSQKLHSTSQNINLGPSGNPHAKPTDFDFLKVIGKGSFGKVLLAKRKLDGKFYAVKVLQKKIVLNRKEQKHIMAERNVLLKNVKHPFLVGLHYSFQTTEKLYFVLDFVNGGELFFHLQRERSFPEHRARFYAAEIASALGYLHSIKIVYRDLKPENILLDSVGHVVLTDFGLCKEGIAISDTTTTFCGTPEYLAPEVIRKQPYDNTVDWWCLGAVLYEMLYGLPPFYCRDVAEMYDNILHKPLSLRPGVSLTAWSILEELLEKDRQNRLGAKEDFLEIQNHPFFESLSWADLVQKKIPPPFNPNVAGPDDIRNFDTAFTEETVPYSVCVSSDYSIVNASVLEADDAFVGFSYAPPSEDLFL

[37] = biological target: TGF-beta receptor type-2 (Homo sapiens) (UniProt P37173); conditions: Compound concentration 1000.0 nM
[38] = biological target: Transient receptor potential cation channel subfamily M member 6 (Homo sapiens) (UniProt Q9BX84); conditions: Compound concentration 1000.0 nM
[39] = biological target: Non-receptor tyrosine-protein kinase TYK2 (Homo sapiens) (UniProt P29597); conditions: Compound concentration 1000.0 nM
[40] = biological target: Serine/threonine-protein kinase VRK2 (Homo sapiens) (UniProt Q86Y07); conditions: Compound concentration 1000.0 nM
[41] = biological target: Wee1-like protein kinase 2 (Homo sapiens) (UniProt P0C1S8); conditions: Compound concentration 1000.0 nM
[42] = biological target: 5-hydroxytryptamine receptor 3A (Homo sapiens) (UniProt P46098); conditions: Compound concentration 10.0 uM
Chain of 5-hydroxytryptamine receptor 3A (Homo sapiens) (P46098 whole entry): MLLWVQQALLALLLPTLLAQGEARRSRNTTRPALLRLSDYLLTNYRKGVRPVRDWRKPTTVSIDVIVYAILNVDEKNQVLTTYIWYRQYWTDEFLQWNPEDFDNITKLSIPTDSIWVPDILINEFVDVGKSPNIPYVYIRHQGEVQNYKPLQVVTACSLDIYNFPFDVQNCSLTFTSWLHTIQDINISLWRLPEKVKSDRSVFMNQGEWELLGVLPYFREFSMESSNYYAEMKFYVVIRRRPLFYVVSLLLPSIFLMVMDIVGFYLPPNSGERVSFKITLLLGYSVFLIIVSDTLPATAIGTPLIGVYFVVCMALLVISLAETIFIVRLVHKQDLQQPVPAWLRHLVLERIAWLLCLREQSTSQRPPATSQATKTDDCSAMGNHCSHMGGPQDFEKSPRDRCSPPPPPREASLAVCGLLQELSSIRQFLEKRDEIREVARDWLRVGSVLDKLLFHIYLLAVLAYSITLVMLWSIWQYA

[43] = biological target: D(1B) dopamine receptor (Homo sapiens) (UniProt P21918); conditions: Compound concentration 10.0 uM
[44] = biological target: Sodium-dependent noradrenaline transporter (Homo sapiens) (UniProt P23975); conditions: Compound concentration 10.0 uM

O=c1nc(-c2ccccn2)sc2ccccc12 [BTZO-1]
inactive: residual activity [1] 100% | residual activity [2] 93% | residual activity [3] 97% | residual activity [4] 100% | residual activity [5] 100% | residual activity [6] 100% | residual activity [7] 71% | residual activity [8] 100% | residual activity [9] 61% | residual activity [10] 100% | residual activity [11] 100% | residual activity [12] 65% | residual activity [13] 94% | residual activity [14] 100% | residual activity [15] 82% | residual activity [16] 86% | residual activity [17] 100% | residual activity [18] 97% | residual activity [19] 100% | residual activity [20] 100% | residual activity [21] 100% | residual activity [22] 100% | residual activity [23] 100% | residual activity [24] 66% | residual activity [25] 78% | residual activity [26] 86% | residual activity [27] 100% | residual activity [28] 77% | residual activity [29] 100% | residual activity [30] 100% | residual activity [31] 98% | residual activity [32] 83% | residual activity [33] 100% | residual activity [34] 88% | residual activity [35] 100% | residual activity [36] 100% | residual activity [37] 100% | residual activity [38] 77% | residual activity [39] 100% | residual activity [40] 74% | residual activity [41] 100% | inhibition [42] 17.2% | inhibition [43] 21.5% | inhibition [44] -0.363%

O=C1NC(c2ccccn2)Sc2ccccc21 (stereo not drawn) [BTZO-4]
inactive: residual activity [1] 80% | residual activity [2] 97% | residual activity [3] 72% | residual activity [4] 100% | residual activity [5] 86% | residual activity [6] 99% | residual activity [7] 82% | residual activity [8] 100% | residual activity [9] 78% | residual activity [10] 100% | residual activity [11] 86% | residual activity [12] 58% | residual activity [13] 90% | residual activity [14] 95% | residual activity [15] 87% | residual activity [16] 69% | residual activity [17] 100% | residual activity [18] 93% | residual activity [19] 80% | residual activity [20] 100% | residual activity [21] 100% | residual activity [22] 96% | residual activity [23] 94% | residual activity [24] 58% | residual activity [25] 72% | residual activity [26] 84% | residual activity [27] 100% | residual activity [28] 73% | residual activity [29] 100% | residual activity [30] 100% | residual activity [31] 100% | residual activity [32] 81% | residual activity [33] 100% | residual activity [34] 78% | residual activity [35] 100% | residual activity [36] 100% | residual activity [37] 85% | residual activity [38] 64% | residual activity [39] 88% | residual activity [40] 77% | residual activity [41] 85% | inhibition [42] -1.17% | inhibition [43] 11.2% | inhibition [44] 28.7%
